Laboratory results from patent publication EP1143981B1, “USE OF N-GLYCOLNEURAMINIC ACID AND ITS DERIVATIVES FOR THE MANUFACTURE OF A MEDICAMENT FOR THE TREATMENT OF HIV INFECTIONS” (Glukor, Inc., priority 1998, dated 2000).
“And” between values parts separate entries of the source, which are not always exact repeats. Identical values can stand only once.

Assays:
[1] = tested on: HIV-1IIIB; assay: CEM-SS cell-based anti-HIV assay (XTT); conditions: 3.2µM to 1 mM; CEM-SS cells
[2] = tested on: HIV-1ROJO; assay: Reverse transcriptase activity assay in infected PBMCs; type: cell-based; conditions: for RT activity % VC: % virus control; for RT Activity (cpm) / Reverse Transcriptase (RT) Activity (cpm): single samples; for IC50: Human immunodeficiency virus 1, PBMC
Excerpt: PBMCs were isolated from fresh human blood obtained commercially from the American Red Cross (Baltimore, Maryland). CEM-SS cells were obtained from the NIH AIDS reagent program. The low passage, lymphotropic clinical isolate ROJO was obtained from a pediatric patient attending the AIDS Clinic at the University of Alabama at Birmingham. Phytohemagglutinin (PHA-P) was obtained from Sigma Chemical Co. (St. Louis, MO) and recombinant IL-2 was obtained from Amgen (San Francisco, CA). As a positive control for antiviral assays, AZT was obtained from the NIH AIDS Reagent Program. HIV-1RF also was obtained from the NIH AIDS reagent program. Tritiated thymidine triphosphate was obtained from New England Nuclear (Boston, MA). Each plate in each experiment contained cell control wells (cells only), virus control wells (cells plus virus), drug toxicity control wells (cells plus drug only), drug colorimetric control wells (drug only) as well as experimental wells (drug plus cells plus virus).
Fresh human PBMCs were isolated from voluntary Red Cross donors, seronegative for HIV and HBV. Leukophoresed blood was diluted 1:1 with Dulbecco's PBS, layered over 14 mL of Ficoll-Hypaque density gradient in a 50mL centrifuge and then centrifuged for 30 minutes at 600 x g. Banded PBMCs were gently aspirated from the resulting interface and subsequently washed twice with PBS by low speed centrifugation. […] PBMCs were maintained in this medium at a concentration of 1-2 x 10^6 cells/mL with bi-weekly medium changes until used in the assay.
For the standard PBMC assay, PHA-P stimulated cells from at least two normal donors were pooled, diluted in fresh medium to a final concentration of 1 x 10^6 cells/mL, and plated in the interior wells of a 96 well round bottom microplate at 50 µL/well (5 x 10^4 cells/well). Test drug dilutions were prepared at a 2X concentration in microfuge tubes and 100 µL of each concentration was placed in appropriate wells in a standard format. A predetermined dilution of virus stock was placed in each test well (50 µL, final MOI ≅ 0.1). Wells with cells and virus alone were used for virus control. Separate plates were prepared identically without virus for drug cytotoxicity studies using an XTT assay system. The PBMC cultures were maintained for seven days following infection, at which time cell-free supernatant samples were collected and assayed for reverse transcriptase activity as described below.
Virus Preparation: Pre-tittered aliquots of HIV-1ROJO and HIV-1RF were removed from the freezer (-80°C) and thawed to room temperature in a biological safety cabinet. The virus was resuspended and diluted into tissue culture medium such that the amount of virus added to each well in a volume of 50 µL will be the amount determined to give complete cell killing at 6 days post-infection.
Reverse Transcriptase Activity Assay: A microtiter based reverse transcriptase (RT) reaction was utilized as described by Buckheit et al., (1991), AIDS Research and Human Retroviruses, 7:295-302. Tritiated thymidine triphosphate (^3H-TTP) was suspended in distilled H2O at 5 Ci/mL. Poly rA and oligo dT were prepared as a stock solution which was kept at -20°C. RT reaction buffer was prepared fresh on a daily basis and contained 125 µL 1M EGTA, 125 µL dH2O, 110 µL 10% SDS, 50 µL 1M Tris (pH 7.4), 50 µL 1M DTT, and 40 µL 1M MgCl2. These three solutions were mixed together in a ratio of 2 parts ^3H-TTP, 1 part poly rA:oligo dT, and 1 part reaction buffer. Ten microliters of this reaction mixture were placed in a round bottom microtiter plate and 15 µL of virus containing supernatant were added and mixed. The plate was incubated at 37°C in a water bath with a solid support to prevent submersion of the plate and incubated for 60 minutes.

[3] = tested on: HIV-1 IIIB; assay: HIV-1 P24 output, test solutions added post infection; type: cell-based; conditions: Human immunodeficiency virus 1, IIIB; endpoint of the inhibition; read-out: lowest effective concentration for inhibition of HIV p24 output
Description: In addition, a similar experiment was performed, except that test solutions were added post infection, at the time of plating into the triplicate wells.

[4] = 0.0001 mM, simultaneously exposed to drug and HIV
[5] = 0.00032 mM, 2-hour pretreatment
[6] = 0.00032 mM, simultaneously exposed to drug and HIV
[7] = 0.001 mM, simultaneously exposed to drug and HIV
[8] = 0.0032 mM, simultaneously exposed to drug and HIV
[9] = 0.01 mM, simultaneously exposed to drug and HIV
[10] = 0.032 mM, simultaneously exposed to drug and HIV
[11] = 0.1 mM, simultaneously exposed to drug and HIV
[12] = 0.32 mM, simultaneously exposed to drug and HIV
[13] = 1 mM, simultaneously exposed to drug and HIV

## O=C(CO)N[C@H]1[C@H]([C@H](O)[C@H](O)CO)OC(O)(C(=O)O)C[C@@H]1O (stereo partly drawn) [N-glycolylneuraminic acid]
[1]
  anti-HIV activity: did not display anti-HIV activity
[2]; 0.0001 mM, 2-hour pretreatment
  Reverse Transcriptase (RT) Activity (cpm), Mean: 2763.7 cpm
  RT activity % VC: 134.2%
[2]; [4]
  RT Activity (cpm), Mean: 2348.3 cpm
  RT activity % VC: 78.5%
  RT Activity (cpm): 2423.0 cpm and 2253.0 cpm and 2369.0 cpm
[2]; [5]
  Reverse Transcriptase (RT) Activity (cpm), Mean: 2015.3 cpm
  RT activity % VC: 97.8%
[2]; [6]
  RT Activity (cpm), Mean: 2795.0 cpm
  RT activity % VC: 93.4%
[2]; 0.001 mM, 2-hour pretreatment
  Reverse Transcriptase (RT) Activity (cpm), Mean: 1867.0 cpm
  RT activity % VC: 90.6%
[2]; [7]
  RT Activity (cpm), Mean: 3108.7 cpm
  RT activity % VC: 103.9%
[2]; 0.0032 mM, 2-hour pretreatment
  Reverse Transcriptase (RT) Activity (cpm), Mean: 2529.0 cpm
  RT activity % VC: 122.8%
  Reverse Transcriptase (RT) Activity (cpm): 2381.0 cpm and 3368.0 cpm and 1838.0 cpm
[2]; [8]
  RT Activity (cpm), Mean: 2892.7 cpm
  RT activity % VC: 96.7%
[2]; 0.01 mM, 2-hour pretreatment
  Reverse Transcriptase (RT) Activity (cpm), Mean: 951.3 cpm
  RT activity % VC: 46.2%
[2]; [9]
  RT Activity (cpm), Mean: 2163.3 cpm
  RT activity % VC: 72.3%
  RT Activity (cpm): 2284.0 cpm and 2280.0 cpm and 1926.0 cpm
[2]; 0.032 mM, 2-hour pretreatment
  Reverse Transcriptase (RT) Activity (cpm), Mean: 561.7 cpm
  RT activity % VC: 27.3%
[2]; [10]
  RT Activity (cpm), Mean: 1867.3 cpm
  RT activity % VC: 62.4%
  RT Activity (cpm): 1814.0 cpm and 2094.0 cpm and 1694.0 cpm
[2]; 0.1 mM, 2-hour pretreatment
  Reverse Transcriptase (RT) Activity (cpm), Mean: 459.0 cpm
  RT activity % VC: 22.3%
[2]; [11]
  RT Activity (cpm), Mean: 906.3 cpm
  RT activity % VC: 30.3%
[2]; 0.32 mM, 2-hour pretreatment
  Reverse Transcriptase (RT) Activity (cpm), Mean: 146.7 cpm
  RT activity % VC: 7.1%
  Reverse Transcriptase (RT) Activity (cpm): 196.0 cpm and 140.0 cpm and 104.0 cpm
[2]; [12]
  RT Activity (cpm), Mean: 102.7 cpm
  RT Activity (cpm): 132.0 cpm and 108.0 cpm and 68.0 cpm
[2]; 1 mM, 2-hour pretreatment
  Reverse Transcriptase (RT) Activity (cpm), Mean: 76.0 cpm
  RT activity % VC: 3.7%
  Reverse Transcriptase (RT) Activity (cpm): 72.0 cpm and 68.0 cpm and 88.0 cpm
[2]; [13]
  RT Activity (cpm), Mean: 204 cpm
  RT activity % VC: 6.8%
[2]; PBMCs, 2hr pretreatment
  IC50: ~10 µM
[2]; PBMCs, simultaneously exposed to drug and HIV, without a pretreatment
  IC50: ~58 µM
[2]; PBMCs, simultaneously exposed to drug and HIV
  TI: > 17.25
[2]; PBMCs, with and without a 2hr pretreatment of the cells
  anti-HIV activity: active
[3]
  minimal effective concentration: 0.003 µg/mL
